Patent publication US8338401B2, “Coumarin-amide derivatives and its preparation, said drug composition and its use” (Institute of Materia Medica Chinese Academy of Medical …, priority 2002, dated 2012)
Converted amounts (≈) assume the structure as drawn. Read-outs that look alike come from different tables or passages of the source. Each block holds one compound with its values, some of them ahead of it.

Tests used:
TGF-β receptor = TGF-β receptor binding antagonism assay ([125I]TGF-β1) in Balb/c 3T3 cells; conditions: for Inhibition Rate (%): 10 μg/ml, 50 pmol/L [125I]TGF-β1
Description: Balb/c 3T3 cells were seeded in 24 well-plate and cultured in Dulbecco's modified Eagle's medium (DMEM) supplemented with 10% fetal bovine serum, in 37° C. and 5% CO2, for 2-4 days. When cells were at a near-confluent, medium was changed to the binding buffer (50 mmol/L HEPES containing NaCl, KCl, MgSO4 and CaCl2). The assay was initiated by addition of 50 pmol/L [^125I]TGF-β1 and test compounds. After incubation for 210-240 minutes, the medium was removed, and cells were washed with ice-cold binding buffer. Non-specific bindings in the presence of 10 nmol/L TGF-β1 were determined. The cells were then solubilized using buffer containing Triton X-100 and the radioactivity was measured (see Table 4).

[1] = test system: chronic renal failure induced by 5/6 nephrectomy in rats; type: in vivo, Male Wistar rats
Description: The model on chronic renal failure induced by partial renal ablation in rats was set up according to the Guidelines of Pre-clinic Research for New Drugs. Male Wistar rats with initial body weights of 200 g, anesthetized with 35 mg/kg of pentobarbital i.p., the right kidney was removed, and the upper and lower pole […] of the left kidney were resected, stop bleeding, closed the abdominal and sutured. Four weeks following surgery, the BUN, creatinine and urinary protein in rats were determined. […] Rats were randomly divided into seven groups, 30/group, with sham, model, Benazepril (4 mg/kg/day) and Losartan (10 mg/kg/day) as positive control, and compound 149 groups (7.5 mg/kg/day, 15 mg/kg/day and 30 mg/kg/day, respectively). All the groups were administered intragastrically, once per day and 6 (six) times per week, till 16 weeks post surgery. Body weights were weighed to observe the growth of the rats. The above indexes were determined every 4 weeks up to the 16th week following the initiation of drug administration, and at each time, a number of animals were sacrificed and the kidneys were harvested for pathological analysis. Pathological lesions in chronic renal failure models are mainly glomerulosclerosis and interstitial fibrosis. According to the damage extents, glomerulosclerosis is divided into five grades (0 IV). 0 grade means no glomerulus pathological changes at all, and IV grade means ultimately glomerular sclerosis and glassy pathological changes.

[2] = test system: kidney tubulointerstitial fibrosis caused by unilateral ureteral obstruction (UUO) in rats; test: Inhibition of kidney tubulointerstitial fibrosis caused by unilateral ureteral obstruction (UUO) in rats; type: in vivo, Male Wistar rats; conditions: UUO rats; for BUN: oral for 16 days
Description: Male Wistar rats with initial body weights of 180˜230 g were used. Unilateral ureteral obstruction was performed under pentobarbital anesthesia (35 mg/kg) and sterile conditions. Via a midline incision, the left ureteral was ligated. Sham surgery was performed by making a midline incision but leaving ureteral intact. Following surgery, rats were randomly divided into sham, model, Benazepril (4 mg/kg/day) and Losartan (10 mg/kg/day) as positive control, and compound 149 (5 mg/kg/day, 10 mg/kg/day and 20 mg/kg/day). Starting 2 day before surgery, Benazepril, Losartan and compound 149 were administered for 16 days orally. BUN and creatinine in serum were determined in the 11th and 16th day (Table 6) following initiation of Benazepril, Losartan and compound 149 treatment, at which time animals were killed and the kidneys were harvested. Tissues were dissected, weighed, fixed in 10% formaldehyde and embedded in paraffin wax for pathological analysis.

[3] = 8th week after administration (12 weeks after nephrectomy), 10 mg/kg
[4] = 8th week after administration (12 wk after nephrectomy), 10 mg/kg
[5] = 12th week after administration (16 weeks after nephrectomy), 10 mg/kg
[6] = 12th week after administration (16 wk after nephrectomy), 10 mg/kg
[7] = 8th week after administration (12 weeks after nephrectomy), 4 mg/kg
[8] = 8th week after administration (12 wk after nephrectomy), 4 mg/kg
[9] = 12th week after administration (16 weeks after nephrectomy), 4 mg/kg
[10] = 12th week after administration (16 wk after nephrectomy), 4 mg/kg
[11] = 16 weeks after nephrectomy (12 weeks since administration), 4 mg/kg/day

Structure (SMILES): CCc1cc2cc(C(=O)Nc3ccc(O)c(C(=O)O)c3)c(=O)oc2cc1OC [Compound 27, 3-(3′-carboxy-4′-hydroxy-phenylamidocarbonyl)-6-ethyl-7-methoxy-coumarin]
Inhibition Rate (%) (TGF-β receptor): 77.2%

Structure (SMILES): COc1ccc2cc(C(=O)Nc3ccc(S(=O)(=O)Nc4cc(C)on4)cc3)c(=O)oc2c1C [Compound 55]
Inhibition Rate (%) (TGF-β receptor): 52.3%

Structure (SMILES): CCCCc1nc(Cl)c(CO)n1Cc1ccc(-c2ccccc2-c2nn[nH]n2)cc1 [Losartan, reference compound]
BUN [1, 3]: 25.64 ± 5.116 mg/dL | serum creatinine (Scr.) [1, 3]: 2.34 ± 0.268 mg/dL | AII (Angiotensin II) [1, 4]: 96.7 ± 32.1 pg/mL | UP (urinary protein) [1, 4]: 32.7 ± 10.3 mg/day | serum TGF-β1 [1, 4]: 18.7 ± 9.2 ng/mL | Glomerulosclerosis Grade (%): 0 ([1]; 8 wk after ad., 10 mg/kg/day): 54.4 ± 29.2 % | Glomerulosclerosis Grade (%): I ([1]; 8 wk after ad., 10 mg/kg/day): 31.9 ± 20.0% | Glomerulosclerosis Grade (%): II ([1]; 8 wk after ad., 10 mg/kg/day): 13.7 ± 14.0% | Glomerulosclerosis Grade (%): III ([1]; 8 wk after ad., 10 mg/kg/day): 1.1 ± 3.3 % | Glomerulosclerosis Grade (%): IV ([1]; 8 wk after ad., 10 mg/kg/day): 0% | Glomerulosclerosis Total Grade ([1]; 8 wk after ad., 10 mg/kg/day): 2.8 ± 1.0 | BUN [1, 5]: 37.84 ± 5.672 mg/dL | serum creatinine (Scr.) [1, 5]: 2.21 ± 0.48 mg/dL | AII (Angiotensin II) [1, 6]: 38.9 ± 17.4 pg/mL | UP (urinary protein) [1, 6]: 39.3 ± 14.2 mg/day | serum TGF-β1 [1, 6]: 11.8 ± 12.6 ng/mL | Glomerulus pathological scores, compared with the model group ([1]; 12 weeks after nephrectomy (8 weeks since administration), compound 149 30 mg/kg, Losartan 10 mg/kg/day): less than that of the model group significantly | rates of 0 grade glomerylus in residual kidney, compared with the model group ([1]; 12 weeks after nephrectomy (8 weeks since administration), compound 149 30 mg/kg, Losartan 10 mg/kg/day, P<0.05): higher than that of the model group with significant difference | Glomerulosclerosis Grade (%): 0 ([1]; 12 wk after ad., 10 mg/kg/day): 0% | Glomerulosclerosis Grade (%): I ([1]; 12 wk after ad., 10 mg/kg/day): 10.0 ± 2.9% | Glomerulosclerosis Grade (%): II ([1]; 12 wk after ad., 10 mg/kg/day): 45.7 ± 17.7% | Glomerulosclerosis Grade (%): III ([1]; 12 wk after ad., 10 mg/kg/day): 41.9 ± 25.6% | Glomerulosclerosis Grade (%): IV ([1]; 12 wk after ad., 10 mg/kg/day): 2.8 ± 4.8% | Glomerulosclerosis Total Grade ([1]; 12 wk after ad., 10 mg/kg/day): 7.2 ± 1.3 | number of grade III glomerulus, compared with the model group ([1]; 16 weeks after nephrectomy (12 weeks since administration), compound 149 30 mg/kg (P<0.01), Losartan 10 mg/kg/day (P<0.05)): less than that of the model group significantly | inflammatory cell infiltration and tubulointerstitial fibrosis (pathological changes) [2]: significantly attenuated | BUN ([2]; 10.0 mg/kg): 23.88 ± 2.94 mg/dL

Structure (SMILES): COc1ccc2cc(C(=O)Nc3ccc(S(=O)(=O)NC(=N)N)cc3)c(=O)oc2c1OC [Compound 66, 3-(4′-guanidinosulfonylphenylamidocarbonyl)-7,8-dimethoxy-coumarin]
Inhibition Rate (%) (TGF-β receptor): 52.3%

Structure (SMILES): COc1cc2oc(=O)c(C(=O)Nc3ccc(S(=O)(=O)NC(=N)N)cc3)cc2cc1Cl [Compound 92, 3-(4′-guanidinosulfonylphenylamidocarbonyl)-6-chloro-7-methoxy-coumarin]
Inhibition Rate (%) (TGF-β receptor): 106.4%

Structure (SMILES): COc1cc2oc(=O)c(C(=O)Nc3ccc(C(=O)O)c(O)c3)cc2cc1Cl [Compound 87, 3-(3′-hydroxy-4′-carboxy-phenylamidocarbonyl)-6-chloro-7-methoxy-coumarin]
Inhibition Rate (%) (TGF-β receptor): 91.1%

Structure (SMILES): COc1cc2oc(=O)c(C(=O)Nc3ccc(C(=O)O)c(O)c3)cc2cc1Br [Compound 96, 3-(3′-hydroxy-4′-carboxy-phenylamidocarbonyl)-6-bromo-7-methoxy-coumarin]
Inhibition Rate (%) (TGF-β receptor): 82.3%

Structure (SMILES): CCOC(=O)[C@H](CCc1ccccc1)N[C@H]1CCc2ccccc2N(CC(=O)O)C1=O [Benazepril, reference compound]
BUN [1, 7]: 37.66 ± 8.895 mg/dL | serum creatinine (Scr.) [1, 7]: 3.54 ± 1.140 mg/dL | AII (Angiotensin II) [1, 8]: 74.3 ± 13.2 pg/mL | UP (urinary protein) [1, 8]: 51.1 ± 23.6 mg/day | serum TGF-β1 [1, 8]: 40.9 ± 26.6 ng/mL | Glomerulosclerosis Grade (%): 0 ([1]; 8 wk after ad., 4 mg/kg/day): 12.2 ± 19.0% | Glomerulosclerosis Grade (%): I ([1]; 8 wk after ad., 4 mg/kg/day): 29.6 ± 23.9% | Glomerulosclerosis Grade (%): II ([1]; 8 wk after ad., 4 mg/kg/day): 28.1 ± 18.1% | Glomerulosclerosis Grade (%): III ([1]; 8 wk after ad., 4 mg/kg/day): 19.6 ± 24.2% | Glomerulosclerosis Grade (%): IV ([1]; 8 wk after ad., 4 mg/kg/day): 5.9 ± 11.2% | Glomerulosclerosis Total Grade ([1]; 8 wk after ad., 4 mg/kg/day): 5.5 ± 2.6 | BUN [1, 9]: 39.48 ± 7.109 mg/dL | serum creatinine (Scr.) [1, 9]: 2.28 ± 0.70 mg/dL | AII (Angiotensin II) [1, 10]: 47.8 ± 12.0 pg/mL | UP (urinary protein) [1, 10]: 66.3 ± 31.9 mg/day | serum TGF-β1 [1, 10]: 12.8 ± 14.8 ng/mL | inflammatory cell infiltration in kidney tissues ([1]; 12 weeks after nephrectomy (8 weeks since administration), 4 mg/kg/day, some animals): severe | Glomerulosclerosis Grade (%): 0 ([1]; 12 wk after ad., 4 mg/kg/day): 0% | Glomerulosclerosis Grade (%): I ([1]; 12 wk after ad., 4 mg/kg/day): 0% | Glomerulosclerosis Grade (%): II ([1]; 12 wk after ad., 4 mg/kg/day): 19.1 ± 27.1% | Glomerulosclerosis Grade (%): III ([1]; 12 wk after ad., 4 mg/kg/day): 46.2 ± 15.6% | Glomerulosclerosis Grade (%): IV ([1]; 12 wk after ad., 4 mg/kg/day): 34.8 ± 29.9% | Glomerulosclerosis Total Grade ([1]; 12 wk after ad., 4 mg/kg/day): 9.8 ± 1.4 | glomerulus pathological score, rank among groups [1, 11]: the highest | inflammatory cell infiltration in kidney matrix [1, 11]: medium-severe | inflammatory cell infiltration and tubulointerstitial fibrosis (pathological changes) [2]: more significant | animals with focal abscess formations in the medulla of kidney ([2]; 4 mg/kg/day): 4/7 | BUN ([2]; 4.0 mg/kg): 20.99 ± 1.58 mg/dL

Structure (SMILES): COc1ccc2cc(-c3nnc(-c4ccccc4)o3)c(=O)oc2c1 [Compound 206, 3-(2′-phenyl-1′,3′,4′-oxadiazol-5′yl)-7-methoxycoumarin]
Inhibition Rate (%) (TGF-β receptor): −0.7%

Continued, in another order:

melting point: 195 °C
Structure (SMILES): CCOC(=O)c1cc2cc(Cl)c(O)c([N+](=O)[O-])c2oc1=O [Compound 241, 3-ethoxycarbonyl-6-chloro-7-hydroxy-8-nitro-coumarin]

melting point: > 300 °C | IC50 (TGF-β receptor): 5.3 µg/mL (≈ 13.6 µM)
Structure (SMILES): COc1cc2oc(=O)c(C(=O)Nc3ccc(O)c(C(=O)O)c3)cc2cc1Cl [Compound 88, 3-(3′-carboxy-4′-hydroxy-phenylamidocarbonyl)-6-chloro-7-methoxy-coumarin]
Inhibition Rate (%) (TGF-β receptor): 111.2%

melting point: 143 °C
Structure (SMILES): CCOC(=O)c1cc2cc(CC)c(O)c([N+](=O)[O-])c2oc1=O [Compound 233, 3-ethoxycarbonyl-6-ethyl-7-hydroxy-8-nitro-coumarin]

melting point: 152 °C
Structure (SMILES): CCOC(=O)c1cc2cc([N+](=O)[O-])c(OC)c([N+](=O)[O-])c2oc1=O

melting point: 191 °C
Structure (SMILES): CCOC(=O)c1cc2cc([N+](=O)[O-])c(OC)c(OC)c2oc1=O [Compound 227, 3-ethoxycarbonyl-6-nitro-7,8-dimethoxy-coumarin]

melting point: > 300 °C | IC50 (TGF-β receptor): 13.8 µg/mL (≈ 40.7 µM)
Structure (SMILES): COc1ccc2cc(C(=O)Nc3cccc(C(=O)O)c3)c(=O)oc2c1 [Compound 2, 3-(m-carboxyphenylamidocarbonyl)-7-methoxycoumarin]
Inhibition Rate (%) (TGF-β receptor): 74.1%

melting point: 176 °C
Structure (SMILES): CCOC(=O)c1cc2cc([N+](=O)[O-])c(O)c([N+](=O)[O-])c2oc1=O

melting point: 266 °C | IC50 (TGF-β receptor): 8.5 µg/mL (≈ 22.2 µM)
Structure (SMILES): CCc1cc2cc(C(=O)Nc3ccc(C(=O)O)c(O)c3)c(=O)oc2cc1OC [Compound 26, 3-(3′-hydroxy-4′-carboxy-phenylamidocarbonyl)-6-ethyl-7-methoxy-coumarin]
Inhibition Rate (%) (TGF-β receptor): 95.4%

melting point: 279 °C (dec.) | IC50 (TGF-β receptor): 7.8 µg/mL (≈ 22 µM)
Structure (SMILES): COc1ccc2cc(C(=O)Nc3ccc(C(=O)O)c(O)c3)c(=O)oc2c1 [Compound 7, 3-(3′-hydroxy-4′-carboxyphenylamidocarbonyl)-7-methoxy coumarin]
Inhibition Rate (%) (TGF-β receptor): 94.2%
